According to patent publication US8193237B2, “Indole derivative having IκB kinase β inhibitory activity” (Santen Pharmaceutical Co., Ltd., priority 2007, dated 2012):

What follows are compounds tested against T1, IKKβ (Homo sapiens, UniProt O14920) (assay: IKKβ inhibition assay by fluorescence polarization (IMAP kit)). Details: test compound at 1 μM; inhibition rate exceeding 100% is indicated as 100%.
T1 construct: purchased Upstate Biotechnology Inc. 14-485
T1 sequence (O14920 1-756): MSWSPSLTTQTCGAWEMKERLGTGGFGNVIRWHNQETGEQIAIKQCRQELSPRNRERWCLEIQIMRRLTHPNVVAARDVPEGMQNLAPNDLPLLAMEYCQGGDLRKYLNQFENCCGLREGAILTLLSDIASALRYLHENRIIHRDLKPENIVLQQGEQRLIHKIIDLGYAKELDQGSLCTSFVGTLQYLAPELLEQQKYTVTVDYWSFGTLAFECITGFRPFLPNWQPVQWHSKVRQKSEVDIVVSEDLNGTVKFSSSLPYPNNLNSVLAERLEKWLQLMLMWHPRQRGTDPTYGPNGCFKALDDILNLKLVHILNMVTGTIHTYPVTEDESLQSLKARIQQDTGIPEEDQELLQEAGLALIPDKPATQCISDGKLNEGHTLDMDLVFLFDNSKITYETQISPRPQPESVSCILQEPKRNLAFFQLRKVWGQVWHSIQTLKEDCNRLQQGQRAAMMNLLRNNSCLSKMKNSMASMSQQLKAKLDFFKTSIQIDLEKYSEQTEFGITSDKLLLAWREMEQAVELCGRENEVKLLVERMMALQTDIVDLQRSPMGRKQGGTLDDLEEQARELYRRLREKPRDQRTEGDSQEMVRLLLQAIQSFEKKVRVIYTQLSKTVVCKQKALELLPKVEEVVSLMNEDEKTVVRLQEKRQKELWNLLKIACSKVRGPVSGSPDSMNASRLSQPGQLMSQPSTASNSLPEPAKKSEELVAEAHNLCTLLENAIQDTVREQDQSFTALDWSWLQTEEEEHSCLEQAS
Type: biochemical
Method: In order to evaluate IKKβ inhibitory activity of the present compounds, an IKKβ inhibition assay by the fluorescence polarization method was conducted.
The assay was conducted using IMAP™ IKKβ assay kit (manufactured by Molecular Devices Corporation, catalogue No. R8115) or IMAP™ FP Screening Express kit (manufactured by Molecular Devices Corporation, catalogue No. R8127) and in accordance with the protocol attached to each kit. The specific methods are described below. (Preparation of Reagents)
1) Complete Reaction Buffer: a complete reaction buffer was so prepared as to obtain a final concentration of 10 mM Tris-HCL (pH 7.2), 10 mM magnesium chloride, 0.1% bovine serum albumin, and 1 mM dithiothreitol.
2) Substrate Working Solution: 400 nM of a substrate working solution was prepared by dissolving and diluting a fluorescein-labeled IKKβ substrate peptide (amino acid sequence: GRHDSGLDSMK) with the complete reaction buffer.
3) Enzyme Working Solution: 0.2 units/mL of an enzyme working solution was prepared by diluting IKKβ solution (manufactured by Upstate Biotechnology Inc., catalogue No. 14-485) with the complete reaction buffer.
4) ATP Working Solution: 8 μM of an ATP working solution was prepared by dissolving ATP into ultrapure water followed by diluting it with the complete reaction buffer.
5) IMAP binding solution: After diluting an IMAP binding buffer with ultrapure water, an IMAP binding solution was prepared by diluting an IMAP binding reagent with the diluted IMAP binding buffer.
A test compound was dissolved in dimethylsulfoxide followed by diluting it with the complete reaction buffer to prepare 4 μM of a test compound solution.
1) To a 384-well plate, the test compound solution, the enzyme working solution, the substrate working solution, and the ATP working solution were added in an amount of 5 μL per well.
2) Incubation was performed at a room temperature for 60 minutes under light shielding.
3) The IMAP binding solution was added in an amount of 60 μL per well.
4) Incubation was performed at a room temperature for 30 minutes under light shielding.
5) Fluorescence polarization value of each well was measured by using Analyst™ HT (multimode plate reader manufactured by Molecular Devices Corporation) and Criterion Host Software v2.00 (manufactured by Molecular Devices Corporation).
6) Operations were performed in the same manner as in 1) to 5) except for changing the test compound to 0.4% dimethylsulfoxide. The obtained result was designated as a control.
7) Operations were performed in the same manner as in 1) to 5) except for changing the test compound and the enzyme working solution to 0.4% dimethylsulfoxide and the complete reaction buffer, respectively. The obtained result was designated as a background.
An IKKβ inhibition rate (%) was calculated by the following equation.
IKKβ inhibition rate (%)=100×{1−(fluorescence polarization value of test compound−fluorescence polarization value of background)/(fluorescence polarization value of control−fluorescence polarization value of background)}

inhibition at 1 µM	Compound
86%	NC(=O)Nc1c(C(N)=O)c2ccc(Br)cc2n1O [Compound 1-1, 2-Aminocarbonylamino-6-bromo-1-hydroxyindole-3-carboxamide]
55%	Cc1ccc2[nH]c(NC(N)=O)c(C(N)=O)c2c1 [Compound 1-2, 2-Aminocarbonylamino-5-methylindole-3-carboxamide]
80%	CC(=O)Nc1ccc2c(C(N)=O)c(NC(N)=O)[nH]c2c1 [Compound 2-1, 6-Acetylamino-2-aminocarbonylaminoindole-3-carboxamide]
56%	NC(=O)Nc1[nH]c2cc(NC(=O)Nc3ccccc3)ccc2c1C(N)=O [Compound 2-3, 2-Aminocarbonylamino-6-(3-phenylureido)indole-3-carboxamide]
95%	CN(C)c1ccc2c(C(N)=O)c(NC(N)=O)[nH]c2c1 [Compound 2-4, 2-Aminocarbonylamino-6-dimethylaminoindole-3-carboxamide]
86%	NC(=O)Nc1[nH]c2cc(N3CCCC3)ccc2c1C(N)=O [Compound 2-5, 2-Aminocarbonylamino-6-(pyrrolidin-1-yl)indole-3-carboxamide]
100%	NC(=O)Nc1[nH]c2cc(-n3cccc3)ccc2c1C(N)=O [Compound 2-9, 2-Aminocarbonylamino-6-(pyrrol-1-yl)indole-3-carboxamide]
75%	NC(=O)Nc1[nH]c2ccccc2c1C(N)=O [Compound 2-10, 2-Aminocarbonylaminoindole-3-carboxamide]
96%	Cc1c(Br)ccc2c(C(N)=O)c(NC(N)=O)[nH]c12 [Compound 2-11, 2-Aminocarbonylamino-6-bromo-7-methylindole-3-carboxamide]
100%	NC(=O)Nc1[nH]c2cc(Br)ccc2c1C(N)=O [Compound 3-1, 2-Aminocarbonylamino-6-bromoindole-3-carboxamide]
100%	NC(=O)Nc1[nH]c2cc(-c3ccccc3)ccc2c1C(N)=O [Compound 4-2, 2-Aminocarbonylamino-6-phenylindole-3-carboxamide]
98%	NC(=O)Nc1[nH]c2cc(-c3ccsc3)ccc2c1C(N)=O [Compound 4-18, 2-Aminocarbonylamino-6-(thiophen-3-yl)indole-3-carboxamide]
100%	NC(=O)Nc1[nH]c2cc(-c3ccoc3)ccc2c1C(N)=O [Compound 4-22, 2-Aminocarbonylamino-6-(furan-3-yl)indole-3-carboxamide]
100%	NC(=O)Nc1[nH]c2cc(-c3ccsc3Cl)ccc2c1C(N)=O [Compound 4-23, 2-Aminocarbonylamino-6-(2-chlorothiophen-3-yl)indole-3-carboxamide]
100%	C=Cc1ccc2c(C(N)=O)c(NC(N)=O)[nH]c2c1 [Compound 4-38, 2-Aminocarbonylamino-6-vinylindole-3-carboxamide]
95%	CN(C)c1ccc(-c2ccc3c(C(N)=O)c(NC(N)=O)[nH]c3c2)cc1 [Compound 4-78, 2-Aminocarbonylamino-6-(4-dimethylaminophenyl)indole-3-carboxamide]

Further lines, the compound ahead of its results:

Compound	inhibition at 1 µM
NC(=O)Nc1[nH]c2cc(NC(=O)c3ccccc3)ccc2c1C(N)=O [Compound 2-2, 2-Aminocarbonylamino-6-benzoylaminoindole-3-carboxamide]	49%
NC(=O)Nc1[nH]c2cc(C(F)(F)F)ccc2c1C(N)=O [Compound 2-16, 2-Aminocarbonylamino-6-trifluoromethylindole-3-carboximide]	95%
COC(=O)c1ccc2c(C(N)=O)c(NC(N)=O)[nH]c2c1 [Compound 2-17, 2-aminocarbonylamino-6-methoxycarbonylindole-3-carboxamide]	100%
NC(=O)Nc1[nH]c2cc(-c3ccc(F)cc3)ccc2c1C(N)=O [Compound 4-1, 2-Aminocarbonylamino-6-(4-fluorophenyl)indole-3-carboxamide]	97%
COc1cccc(-c2ccc3c(C(N)=O)c(NC(N)=O)[nH]c3c2)c1 [Compound 4-4, 2-Aminocarbonylamino-6-(3-methoxyphenyl)indole-3-carboxamide]	98%
NC(=O)Nc1[nH]c2cc(-c3cccs3)ccc2c1C(N)=O [Compound 4-8, 2-Aminocarbonylamino-6-(thiophen-2-yl)indole-3-carboxamide]	100%
NC(=O)Nc1[nH]c2cc(-c3cccnc3)ccc2c1C(N)=O [Compound 4-9, 2-Aminocarbonylamino-6-(pyridin-3-yl)indole-3-carboxamide]	100%
NC(=O)Nc1[nH]c2cc(-c3ccccc3F)ccc2c1C(N)=O [Compound 4-10, 2-Aminocarbonylamino-6-(2-fluorophenyl)indole-3-carboxamide]	100%
NC(=O)Nc1[nH]c2cc(-c3cccc(F)c3)ccc2c1C(N)=O [Compound 4-11, 2-Aminocarbonylamino-6-(3-fluorophenyl)indole-3-carboxamide]	100%
N#Cc1cccc(-c2ccc3c(C(N)=O)c(NC(N)=O)[nH]c3c2)c1 [Compound 4-15, 2-Aminocarbonylamino-6-(3-cyanophenyl)indole-3-carboxamide]	100%
NC(=O)Nc1[nH]c2cc(-c3cccc([N+](=O)[O-])c3)ccc2c1C(N)=O [Compound 4-16, 2-Aminocarbonylamino-6-(3-nitrophenyl)indole-3-carboxamide]	100%
CS(=O)(=O)Nc1cccc(-c2ccc3c(C(N)=O)c(NC(N)=O)[nH]c3c2)c1 [Compound 4-17, 2-Aminocarbonylamino-6-(3-methylsulfonylaminophenyl)indole-3-carboxamide]	100%
NC(=O)Nc1[nH]c2cc(-c3ccco3)ccc2c1C(N)=O [Compound 4-19, 2-Aminocarbonylamino-6-(furan-2-yl)indole-3-carboxamide]	100%
NC(=O)Nc1[nH]c2cc(-c3cnc4ccccc4c3)ccc2c1C(N)=O [Compound 4-36, 2-Aminocarbonylamino-6-(quinolin-3-yl)indole-3-carboxamide]	99%
COC/C=C/c1ccc2c(C(N)=O)c(NC(N)=O)[nH]c2c1 [Compound 4-58, 2-Aminocarbonylamino-6-[(E)-3-methoxy-1-propenyl]indole-3-carboxamide]	99%
NC(=O)Nc1[nH]c2cc(-c3ccc4[nH]ccc4c3)ccc2c1C(N)=O [Compound 4-65, 2-Aminocarbonylamino-6-(indol-5-yl)indole-3-carboxamide]	100%
CCC/C=C/c1ccc2c(C(N)=O)c(NC(N)=O)[nH]c2c1 [Compound 4-67, 2-Aminocarbonylamino-6-[(E)-1-pentenyl]indole-3-carboxamide]	94%
Cc1c(-c2ccoc2)ccc2c(C(N)=O)c(NC(N)=O)[nH]c12 [Compound 4-81, 2-Aminocarbonylamino-6-(furan-3-yl)-7-methylindole-3-carboxamide]	96%
NC(=O)Nc1[nH]c2cc(-c3ccc[nH]3)ccc2c1C(N)=O [Compound 5-1, 2-Aminocarbonylamino-6-(pyrrol-2-yl)indole-3-carboxamide]	95%
